Measurements: paper PMC12511766 (Frontiers in Pharmacology, 2025)
Where two headings read alike, the source gives them in different places.

Key:
[1] = Palbociclib PK parameters estimated with established popPK model; format: in vivo, human
[2] = Adverse events (NCI CTCAE v5.0), Phase Ib study; format: in vivo, human; details: for Patients with AE leading to discontinuation of the drug / Patients with AE leading to dose interruption of the drug / Patients with AE leading to dose reduction of the drug / Patients with AE related to the drug: all enrolled patients
Description: Safety assessments consisted of monitoring and recording adverse events, including serious adverse events and adverse events of special interest, performing protocol-specified safety laboratory assessments, measuring protocol-specified vital signs, and conducting other protocol-specified tests that are deemed critical to the safety evaluation of the study. The adverse event severity grading scale for the NCI Common Terminology Criteria for Adverse Events (CTCAE) v5.0 was used for assessing adverse event severity. If daily dosing of ipatasertib was not tolerated, dosing with food might be used to alleviate gastrointestinal symptoms. […] For ipatasertib, with a starting dose of 300 mg, the first dose reduction was to 200 mg and the second down to 100 mg.

[3] = Palbociclib predose plasma concentrations (LC-MS/MS), Phase Ib study; format: in vivo, human; details: for Palbociclib plasma concentration, C2D15 predose / Palbociclib plasma concentration, C1D15 predose / Palbociclib plasma concentration, C3D15 predose: 125 mg, Geomean (geoCV%)
[4] = cited from earlier work
CYP3A [5] = details: 2021, cited from earlier work
CYP3A [6] = details: 2021, cited from earlier work; remark: listed apart in the source
CYP3A [7] = tested on: CYP3A; set-up: method as in Jing et al., 2022; details: ipatasertib 300 mg in the presence of palbociclib; ref Jing et al., 2022; cited from earlier work
[8] = Steady-state plasma PK of ipatasertib and M1 (LC-MS/MS, noncompartmental analysis), Phase Ib study; format: in vivo, human; details: for Tmax: 300 mg, median (range)
Method: From Cycle 2 Day 1 onward, ipatasertib was taken orally and daily on Days 1–21 of each 28-day cycle. […] Additionally, fulvestrant 500 mg was given via intramuscular (IM) injection on Days 1 and 15 of Cycle 1, and then on Day 1 of each subsequent 28-day cycle. […] The initial safety follow-up extended through at least Day 15 of Cycle two for all patients. […] PK samples for ipatasertib and its major metabolite, M1 (G-037720), were collected at specified time points: 15 min pre-dose, 0.5, 1, 2, 3, 4, 6 h post-dose on Day 1 of Cycle 1, and Day 15 of Cycle 1, as well as 15 min pre-dose on Day 15 of Cycle 2 and 15 min pre-dose and 2 h post-dose on Day 15 of Cycle 3. […] The plasma concentrations of ipatasertib and its metabolite M1 was determined using a previously reported, validated liquid chromatography-tandem mass spectrometry assay (LC-MS/MS) ([Sutaria et al., 2022]). […] The sample analyses were performed at Labcorp Early Drug Development Laboratories, Inc. (Madison, WI, Unitd States) using a Shimadzu LC instrument equipped with an Agilent Polaris C8-A column (2.0 × 50 mm, 5 μm) interfaced with a Sciex API 4000 mass spectrometer operated in positive electrospray ionization mode. […] Noncompartmental PK analysis (NCA) was performed using the commercial software Phoenix WinNonlin (Certara Unitd States, Inc., Princeton, NJ, Unitd States, Version 8.1) to characterize the PK parameters of ipatasertib and M1 including maximal concentration (Cmax), time to maximal concentration (Tmax), area under the curve from time 0 to the last measurable concentration (AUC0-t). […] Non-compartmental PK analyses were performed using Phoenix(R) WinNonlin (Version 8.3, Certara). […] A linear mixed model with a fixed effect for treatment and a random effect for patients was used on the natural log-transformed PK parameters.

[9] = additional patients for safety evaluation, N 9
[10] = palbociclib administered alone, ref U.S. Food and Drug Administration, 2014
[11] = ipatasertib 100 mg single dose with itraconazole, ref Sane et al.
[12] = 300 mg QD with 125 mg palbociclib and fulvestrant vs alone
[13] = C1D15 (with palbociclib and fulvestrant) / C1D1 (ipatasertib alone)
[14] = human, plasma, oral, C1D1, ipatasertib 300 mg QD alone, N = 9, geometric mean (%geoCV)
[15] = ipatasertib coadministered with palbociclib and fulvestrant vs ipatasertib alone

CC(=O)c1c(C)c2cnc(Nc3ccc(N4CCNCC4)cn3)nc2n(C2CCCC2)c1=O [Palbociclib]
AUC over 24 h dosing interval at steady state ([1]; human, plasma, oral, 125 mg, read-out: AUC0-24,ss (popPK-estimated)): 2600 ng·h/mL | Cmax,ss (popPK-estimated) ([1]; palbociclib 125 mg with ipatasertib and fulvestrant, geometric mean (%CV)): 124 ng/mL | Patients with AE leading to discontinuation of the drug [2]: 1 (5%) Number of patients (%) | Patients with AE leading to dose interruption of the drug [2]: 13 (65%) Number of patients (%) | Patients with AE leading to dose reduction of the drug [2]: 10 (50%) Number of patients (%) | Patients with AE related to the drug [2]: 20 (100%) Number of patients (%) | AE considered related to the drug: anemia ([2]; triplet regimen, 20 patients): 40% | AE considered related to the drug: asthenia ([2]; triplet regimen, 20 patients): 25% | AE considered related to the drug: diarrhea ([2]; triplet regimen, 20 patients): 30% | AE considered related to the drug: nausea ([2]; triplet regimen, 20 patients): 40% | AE considered related to the drug: neutropenia ([2]; triplet regimen, 20 patients): 45% | AE considered related to the drug: neutrophil count decreased ([2]; triplet regimen, 20 patients): 40% | AE considered related to the drug: platelet count decreased ([2]; triplet regimen, 20 patients): 30% | AE considered related to the drug: stomatitis ([2]; triplet regimen, 20 patients): 25% | Palbociclib plasma concentration, C2D15 predose ([3]; additional patients for safety evaluation, N 6): 83.2 (19.4) ng/mL | Palbociclib plasma concentration, C1D15 predose [3, 9]: 73.8 (20.7) ng/mL | Palbociclib plasma concentration, C3D15 predose [3, 9]: 67.5 (51.0) ng/mL | Palbociclib plasma concentration, C1D15 predose ([3]; ipatasertib run-in group, N 9): 69.9 (57.2) ng/mL | Palbociclib plasma concentration, C2D15 predose ([3]; ipatasertib run-in group, N 10): 76.9 (44.9) ng/mL | Palbociclib plasma concentration, C3D15 predose ([3]; ipatasertib run-in group, N 10): 71.5 (43.5) ng/mL | Palbociclib plasma concentration, C2D15 predose ([3]; total, N 16): 79.2 (36.4) ng/mL | Palbociclib plasma concentration, C1D15 predose ([3]; total, N 18): 71.8 (40.8) ng/mL | Palbociclib plasma concentration, C3D15 predose ([3]; total, N 19): 69.6 (45.7) ng/mL | Cmin ([3]; palbociclib in this study with ipatasertib and fulvestrant (summary of Table 3)): approximately 70 ng/mL | AUC0-24,ss [4, 10]: 1982 ng·h/mL | Cmax,ss [4, 10]: 116 ng/mL

C[C@]12CC[C@@H]3c4ccc(O)cc4C[C@@H](CCCCCCCCC[S+]([O-])CCCC(F)(F)C(F)(F)F)[C@H]3[C@@H]1CC[C@@H]2O (some centres unmarked) [Fulvestrant]
Patients with AE leading to discontinuation of the drug [2]: 0 Number of patients (%) | Patients with AE leading to dose interruption of the drug [2]: 5 (25%) Number of patients (%) | Patients with AE leading to dose reduction of the drug [2]: 0 Number of patients (%) | Patients with AE related to the drug [2]: 16 (80%) Number of patients (%) | AE considered related to the drug: anemia ([2]; triplet regimen, 20 patients): 10% | AE considered related to the drug: asthenia ([2]; triplet regimen, 20 patients): 15% | AE considered related to the drug: hot flush ([2]; triplet regimen, 20 patients): 10% | CYP3A inhibition / induction classification (CYP3A [5]; ref U.S. Food and Drug Administration): not an inhibitor or inducer of CYP3A

CC(C)NC[C@@H](C(=O)N1CCN(c2ncnc3c2[C@H](C)C[C@H]3O)CC1)c1ccc(Cl)cc1 [Ipatasertib]
Increase in AUC0-∞ with itraconazole (CYP3A [6]; [11]): 5.45 fold | Increase in Cmax with itraconazole (CYP3A [6]; [11]): 2.26 fold | Increase in AUC0-∞ of midazolam (CYP3A [6]; single dose of ipatasertib 600 mg with midazolam, ref Malhi et al.): 2.22 fold | Patients with AE leading to discontinuation of the drug [2]: 1 (5%) Number of patients (%) | Patients with AE leading to dose interruption of the drug [2]: 16 (80%) Number of patients (%) | Patients with AE leading to dose reduction of the drug [2]: 9 (45%) Number of patients (%) | Patients with AE related to the drug [2]: 20 (100%) Number of patients (%) | AE considered related to the drug: anemia ([2]; triplet regimen, 20 patients): 30% | AE considered related to the drug: diarrhea ([2]; triplet regimen, 20 patients): 75% | AE considered related to the drug: fatigue ([2]; triplet regimen, 20 patients): 25% | AE considered related to the drug: nausea ([2]; triplet regimen, 20 patients): 70% | AE considered related to the drug: neutropenia ([2]; triplet regimen, 20 patients): 30% | AE considered related to the drug: neutrophil count decreased ([2]; triplet regimen, 20 patients): 25% | AE considered related to the drug: platelet count decreased ([2]; triplet regimen, 20 patients): 30% | AE considered related to the drug: rash ([2]; triplet regimen, 20 patients): 35% | AE considered related to the drug: vomiting ([2]; triplet regimen, 20 patients): 45% | PBPK-predicted increase in AUC (CYP3A [7]): 48% | PBPK-predicted increase in Cmax (CYP3A [7]): 23% | CYP3A inhibition classification (CYP3A [5]; in vitro, ref Malhi et al.): mild to moderate CYP3A inhibitor | CYP3A4 substrate classification (CYP3A [5]; ref Sane et al.): sensitive substrate | Increase in AUC0-24,ss [8, 12]: 1.68 fold | Increase in Cmax,ss [8, 12]: 1.49 fold | AUC0-24,ss at 300 mg in presence of palbociclib relative to 400 mg in other clinical studies ([8]; 3,637 vs 2,920 ng*hr/mL): about 1.25 times | AUC0-24,ss geometric mean ratio (GMR) (90% CI) [8, 13]: 1.68 (1.41, 2.00) | Cmax,ss geometric mean ratio (GMR) (90% CI) [8, 13]: 1.49 (1.18, 1.88) | Tmax ([8]; human, plasma, oral, C1D1, ipatasertib 300 mg QD alone): 1 h | Tmax ([8]; human, plasma, oral, C1D15, ipatasertib 300 mg QD with palbociclib and fulvestrant): 1.9 h | AUC0-24,ss [8, 14]: 2170 ng·h/mL | Cmax [8, 14]: 294 ng/mL | Increase in AUC0-24,ss [8, 15]: 68% | Increase in Cmax,ss [8, 15]: 49% | Effective half-life ([4]; background statement, no reference printed with the sentence): approximately 24 h | AUC0-24,ss ([4]; ipatasertib 400 mg in other clinical studies, ref Yoshida et al., 2021): 2,920 ng*hr/mL | Dose proportionality of exposure ([4]; over the range of 200–800 mg, no reference printed with the sentence): dose-proportional
